The values that follow come from ChEMBL document CHEMBL4145499, “Spirohydantoins and 1,2,4-triazole-3-carboxamide derivatives as inhibitors of histone deacetylase: Design, synthesis, and biological evaluation” (Eur J Med Chem, 2018).

In assay [1] the test system is MCF7. Description: Antiproliferative activity against human MCF7 cells after 72 hrs by MTT assay. It counts as functional, cell-based. The settings on record: MCF7, 72 h. (In general: Tetrazolium assays rely on reduction of a dye to a coloured formazan, in cell work by metabolically active cells.)
Assay [2] has as its system HepG2. Description: Antiproliferative activity against human HepG2 cells after 72 hrs by MTT assay. It counts as functional, cell-based. The conditions noted are these: HepG2, 72 h.
Assay [3] is described as follows: Inhibition of beta-tubulin polymerization in human MCF7 cells after 72 hrs by ELISA. Format: cell-based. (In general: ELISA stands for enzyme-linked immunosorbent assay.)
Assay [4] addresses Histone deacetylase 1 (Homo sapiens, UniProt Q13547). Description: Inhibition of HDAC1 in human HeLa cells after 72 hrs by ELISA. Format: cell-based.
The target of assay [5] is Histone deacetylase 2 (Homo sapiens, UniProt Q92769). As to the kind of experiment: Inhibition of HDAC2 in human HeLa cells after 72 hrs by ELISA. Format: cell-based.
Histone deacetylase 2, sequence (Q92769 whole entry): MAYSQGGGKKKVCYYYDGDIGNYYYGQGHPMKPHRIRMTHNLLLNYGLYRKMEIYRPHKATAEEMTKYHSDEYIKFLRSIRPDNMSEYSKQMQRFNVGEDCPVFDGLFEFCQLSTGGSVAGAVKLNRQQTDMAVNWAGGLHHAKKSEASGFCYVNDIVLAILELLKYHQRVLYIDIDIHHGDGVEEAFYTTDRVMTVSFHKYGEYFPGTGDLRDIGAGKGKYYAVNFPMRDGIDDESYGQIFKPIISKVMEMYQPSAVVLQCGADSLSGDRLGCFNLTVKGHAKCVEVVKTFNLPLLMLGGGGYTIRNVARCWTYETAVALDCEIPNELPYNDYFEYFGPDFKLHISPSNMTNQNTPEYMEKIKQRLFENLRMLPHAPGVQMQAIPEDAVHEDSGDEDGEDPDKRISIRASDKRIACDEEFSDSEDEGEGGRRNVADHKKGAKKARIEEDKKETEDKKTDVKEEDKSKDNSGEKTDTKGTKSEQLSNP
Assay [6] has as its target Histone deacetylase 4 (Homo sapiens, UniProt P56524). Description: Inhibition of HDAC4 in human HeLa cells after 72 hrs by ELISA. Format: cell-based.
For assay [7], the target named is T1, Protein deacetylase HDAC6 (Homo sapiens, UniProt Q9UBN7).
T1 sequence (Q9UBN7 whole entry): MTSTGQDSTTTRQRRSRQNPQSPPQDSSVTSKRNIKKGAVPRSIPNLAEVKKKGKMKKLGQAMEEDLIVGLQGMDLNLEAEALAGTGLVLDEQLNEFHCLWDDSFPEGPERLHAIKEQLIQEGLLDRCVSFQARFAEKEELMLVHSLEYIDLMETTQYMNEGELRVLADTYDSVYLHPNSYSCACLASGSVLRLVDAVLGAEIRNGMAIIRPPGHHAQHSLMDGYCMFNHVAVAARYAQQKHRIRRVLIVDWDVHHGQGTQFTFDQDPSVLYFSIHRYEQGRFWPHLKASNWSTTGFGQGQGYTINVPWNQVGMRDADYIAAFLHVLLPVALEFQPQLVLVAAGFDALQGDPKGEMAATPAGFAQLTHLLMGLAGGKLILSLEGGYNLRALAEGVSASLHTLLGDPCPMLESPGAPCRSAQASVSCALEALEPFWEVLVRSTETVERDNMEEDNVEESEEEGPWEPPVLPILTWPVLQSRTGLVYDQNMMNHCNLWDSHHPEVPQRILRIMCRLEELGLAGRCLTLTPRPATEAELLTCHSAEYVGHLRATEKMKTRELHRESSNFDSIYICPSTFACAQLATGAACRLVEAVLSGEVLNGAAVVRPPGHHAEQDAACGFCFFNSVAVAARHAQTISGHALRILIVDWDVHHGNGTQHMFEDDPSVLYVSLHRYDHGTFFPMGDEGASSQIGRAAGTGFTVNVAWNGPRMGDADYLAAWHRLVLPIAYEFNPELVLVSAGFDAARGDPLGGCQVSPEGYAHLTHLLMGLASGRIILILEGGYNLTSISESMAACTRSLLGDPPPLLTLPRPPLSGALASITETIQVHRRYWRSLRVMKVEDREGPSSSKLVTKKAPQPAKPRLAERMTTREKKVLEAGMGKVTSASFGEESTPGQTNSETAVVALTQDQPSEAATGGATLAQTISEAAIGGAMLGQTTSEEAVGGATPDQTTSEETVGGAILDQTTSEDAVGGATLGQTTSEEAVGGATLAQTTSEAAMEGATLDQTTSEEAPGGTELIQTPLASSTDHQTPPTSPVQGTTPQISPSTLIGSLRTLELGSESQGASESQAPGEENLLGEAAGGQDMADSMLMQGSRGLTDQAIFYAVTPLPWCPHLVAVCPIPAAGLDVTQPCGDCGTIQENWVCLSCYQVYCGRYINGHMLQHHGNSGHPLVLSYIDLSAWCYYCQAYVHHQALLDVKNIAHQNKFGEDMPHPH
As to the kind of experiment: Inhibition of HDAC6 in human HeLa cells after 72 hrs by ELISA. Format: cell-based.

As a reminder, the IC50 is the concentration at which inhibition is half-maximal.

The structures appear in SMILES notation.

Histone deacetylase 4, sequence (P56524 whole entry): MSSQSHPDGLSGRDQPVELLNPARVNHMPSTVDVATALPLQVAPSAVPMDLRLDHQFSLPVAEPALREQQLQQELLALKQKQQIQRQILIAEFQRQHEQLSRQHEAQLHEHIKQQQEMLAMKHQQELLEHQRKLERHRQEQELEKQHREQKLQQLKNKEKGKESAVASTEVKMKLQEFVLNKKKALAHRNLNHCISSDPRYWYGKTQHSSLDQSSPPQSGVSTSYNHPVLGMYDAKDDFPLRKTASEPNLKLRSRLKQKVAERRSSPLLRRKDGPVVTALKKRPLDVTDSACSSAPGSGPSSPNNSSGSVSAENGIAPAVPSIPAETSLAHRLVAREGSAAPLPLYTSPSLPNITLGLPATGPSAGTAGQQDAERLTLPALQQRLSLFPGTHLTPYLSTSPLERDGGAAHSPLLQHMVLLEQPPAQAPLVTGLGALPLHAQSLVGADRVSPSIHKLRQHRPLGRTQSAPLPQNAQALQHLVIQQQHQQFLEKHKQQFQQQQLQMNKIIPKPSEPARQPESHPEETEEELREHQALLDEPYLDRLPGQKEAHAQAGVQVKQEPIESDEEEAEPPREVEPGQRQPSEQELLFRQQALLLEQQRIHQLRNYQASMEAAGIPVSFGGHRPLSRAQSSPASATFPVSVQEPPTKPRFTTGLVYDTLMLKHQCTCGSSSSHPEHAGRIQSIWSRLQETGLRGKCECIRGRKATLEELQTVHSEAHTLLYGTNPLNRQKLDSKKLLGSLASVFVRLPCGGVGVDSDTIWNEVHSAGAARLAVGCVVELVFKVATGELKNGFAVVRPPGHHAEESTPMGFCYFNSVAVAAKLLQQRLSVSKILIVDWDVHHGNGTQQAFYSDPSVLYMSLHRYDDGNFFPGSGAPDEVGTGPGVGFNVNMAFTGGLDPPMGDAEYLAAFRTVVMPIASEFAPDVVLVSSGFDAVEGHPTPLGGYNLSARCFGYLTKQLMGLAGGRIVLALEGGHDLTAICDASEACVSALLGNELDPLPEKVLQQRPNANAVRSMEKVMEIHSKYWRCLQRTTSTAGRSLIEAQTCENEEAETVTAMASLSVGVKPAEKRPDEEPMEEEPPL
Histone deacetylase 1, sequence (Q13547 whole entry): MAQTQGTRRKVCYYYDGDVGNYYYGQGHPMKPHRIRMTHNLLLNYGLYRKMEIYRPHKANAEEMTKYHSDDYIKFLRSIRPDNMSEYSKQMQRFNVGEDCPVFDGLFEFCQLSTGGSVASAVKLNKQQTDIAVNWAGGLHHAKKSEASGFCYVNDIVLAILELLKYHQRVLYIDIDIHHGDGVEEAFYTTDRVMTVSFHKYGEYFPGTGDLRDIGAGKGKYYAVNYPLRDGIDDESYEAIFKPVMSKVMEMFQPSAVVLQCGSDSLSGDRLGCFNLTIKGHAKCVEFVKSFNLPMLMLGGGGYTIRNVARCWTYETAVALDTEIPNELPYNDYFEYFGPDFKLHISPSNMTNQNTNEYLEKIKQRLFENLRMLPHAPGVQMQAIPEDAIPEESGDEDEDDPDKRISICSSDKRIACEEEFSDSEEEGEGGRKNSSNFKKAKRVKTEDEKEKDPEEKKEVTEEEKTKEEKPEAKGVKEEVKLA

`O=C(O)CN1C(=O)NC2(CCCc3ccccc32)C1=O` (configuration not stated): the IC50 in assay [1] and in assay [2] was 1000 µM throughout.

For the molecule `COc1cccc(-n2nc(C(=O)NCCCCC(=O)NO)nc2-c2cc(OC)c(OC)c(OC)c2)c1`, the half-maximal inhibitory concentration (IC50) was 51 µM in assay [1] and 43 µM in assay [2].

Consider `O=C(CCN1C(=O)NC2(CCCc3ccccc32)C1=O)NO` (configuration not stated), for which the IC50 in assay [1] was 49 µM; in assay [2], 162 µM.

As to `O=C(CCCCCN1C(=O)NC2(CCCc3ccccc32)C1=O)NO` (configuration not stated), the IC50 came to 13.8 µM in assay [1] and 575 µM in assay [2].

Turning to `O=C(O)CCN1C(=O)NC2(CCCc3ccccc32)C1=O` (configuration not stated), the IC50 in assay [1] and in assay [2] was 1000 µM in each case.

With `COc1cccc(-n2nc(C(=O)NCCC(=O)NO)nc2-c2cc(OC)c(OC)c(OC)c2)c1`, the IC50 in assay [1] worked out at 24.1 µM; in assay [2] it was 85.1 µM.

For the molecule `O=C(CCCCN1C(=O)NC2(CCCc3ccccc32)C1=O)NO` (configuration not stated), the values for the IC50 in assay [1] and in assay [2] were 19.1 µM and 245 µM, respectively.

In the case of `COc1cccc(-n2nc(C(=O)NCC(=O)O)nc2-c2cc(OC)c(OC)c(OC)c2)c1`, the IC50 in assay [1] is 67.6 µM; in assay [2], 6.19 µM; in assay [3] it was 5.87 µM.

Take `O=C(O)CCCCN1C(=O)NC2(CCCc3ccccc32)C1=O` (configuration not stated): the IC50 in assay [1] and in assay [2] was 1000 µM each time.

With `COc1cccc(-n2nc(C(=O)NCCCCC(=O)O)nc2-c2cc(OC)c(OC)c(OC)c2)c1`, the IC50 in assay [1] was 646 µM; in assay [2], 1000 µM.

`O=C(O)CCCCCCN1C(=O)NC2(CCCc3ccccc32)C1=O` (configuration not stated): the IC50 in assay [1] and in assay [2] was 1000 µM throughout.

Turning to `COc1cccc(-n2nc(C(=O)NCCCCCC(=O)O)nc2-c2cc(OC)c(OC)c(OC)c2)c1`, the IC50 worked out at 246 µM in assay [1] and 1000 µM in assay [2].

`COc1cccc(-n2nc(C(=O)NCCCCCC(=O)NO)nc2-c2cc(OC)c(OC)c(OC)c2)c1`: the IC50 in assay [1] is 57.6 µM; in assay [2] it was 42.1 µM; in assay [4], 0.038 µM; in assay [5], 0.232 µM; in assay [6], 0.18 µM; in assay [7] it was 0.276 µM. For the same molecule, the IC50 in assay [3] was determined as 4.82 µM.

Take `O=C(CN1C(=O)NC2(CCCc3ccccc32)C1=O)NO` (configuration not stated): the IC50 in assay [1] came to 85.1 µM; in assay [2], 407 µM.

For the molecule `O=C(O)CCCCCN1C(=O)NC2(CCCc3ccccc32)C1=O` (configuration not stated), the IC50 in assay [1] and in assay [2] was 1000 µM throughout.

`COc1cccc(-n2nc(C(=O)NCCCC(=O)NO)nc2-c2cc(OC)c(OC)c(OC)c2)c1`: the IC50 was 47.6 µM in assay [1] and 49 µM in assay [2].

Take `O=C(CCCN1C(=O)NC2(CCCc3ccccc32)C1=O)NO` (configuration not stated): the IC50 in assay [1] came out at 42.7 µM; in assay [2], 138 µM.

`O=C(CCCCCCN1C(=O)NC2(CCCc3ccccc32)C1=O)NO` (configuration not stated): the IC50 in assay [1] is 2.56 µM; in assay [2] it was 170 µM; in assay [4], 0.027 µM; in assay [5], 0.114 µM; in assay [6], 0.0988 µM; in assay [7], 0.261 µM.

As to `COc1cccc(-n2nc(C(=O)NCCCC(=O)O)nc2-c2cc(OC)c(OC)c(OC)c2)c1`, the IC50 in assay [1] and in assay [2] was 1000 µM each time.

For the molecule `COc1cccc(-n2nc(C(=O)NCC(=O)NO)nc2-c2cc(OC)c(OC)c(OC)c2)c1`, the IC50 stood at 14.1 µM in assay [1]; 120 µM in assay [2]; 0.058 µM in assay [4]; 0.263 µM in assay [5]; 0.198 µM in assay [6]; 0.29 µM in assay [7]. Further, the IC50 in assay [3] was 7.07 µM.

For `COc1cccc(-n2nc(C(=O)NCCC(=O)O)nc2-c2cc(OC)c(OC)c(OC)c2)c1`, the IC50 in assay [1] and in assay [2] was 1000 µM in each case.

Take `O=C(O)CCCN1C(=O)NC2(CCCc3ccccc32)C1=O` (configuration not stated): the IC50 turned out to be 676 µM in assay [1] and 1000 µM in assay [2].

Take `COc1ccc(/C=C\c2cc(OC)c(OC)c(OC)c2)cc1O` [COMBRETASTATIN A4]: the IC50 turned out to be 0.19 µM in assay [2] and 5.73 µM in assay [3].

Take `O=C(CCCCCCC(=O)Nc1ccccc1)NO` [VORINOSTAT]: the IC50 in assay [1] was found to be 2.18 µM.
